This passage reports IC50 results from PubChem BioAssay AID1985 (Southern Research Specialized Biocontainment Screening …, 2009).

The assay concerns S. Typhi PhoP-promoter GFP reporter, fluorescence, 4 h. Briefly: modified counter assay using GFP fluorescence, PhoP regulon inhibitor project, dose response (AID 1985).

Values joined by “and” are separate entries in the source; they are usually repeats but may differ in a detail not shown here. Equal values may be shown once.

The IC50 is the point on the concentration scale where inhibition reaches its midpoint. For `O=C(CN1CC[n+]2c(-c3cccs3)csc21)c1ccc(-c2ccccc2)cc1`, the IC50 was 33.7 µM. As to `CN(C)CCCn1c(SCC(=O)N2c3ccccc3Sc3ccccc32)nc2ccccc2c1=O`, the IC50 was 145 µM. Regarding `c1cnc2c(c1)ccc1cccnc12`, the IC50 was 33.7 µM and 131 µM.

In the case of `Cc1ccc(-c2c[n+](Cc3ccc(Cl)cc3)c3n2CCC3)cc1`, the IC50 was 90.3 µM. For `C#CCOCCOCCOCCNc1nc(N2CCN(C(=O)CCCCCCCCCCNC(=O)[C@H](CCCCN)n3cc(C[C@@H](C)CC)nn3)CC2)nc(N2CCN(C(=O)CCCCCCCCCCNC(=O)[C@H](CCCN=C(N)N)n3cc(C[C@@H](C)CC)nn3)CC2)n1`, the concentration for half-maximal inhibition (IC50) is 68.2 µM.

As to `NC1=NC[C@H](Cc2ccc(O)cc2)N1CCCCC1CCCCC1`, the IC50 was 25.5 µM. Consider `Cc1cc(NC2CCCCC2)nc(NCc2ccccc2)n1`, for which the IC50 is 77.9 µM. Then `Cc1ccc(Nc2cc(C)c3c(O)cccc3n2)cc1C`, with 30.7 µM. Take `O=C1OCCN1/N=C/c1ccc([N+](=O)[O-])o1`: the 50% inhibitory concentration (IC50) is 13.4 µM. `O=C(C[n+]1cnn(CC(=O)c2ccc(Cl)cc2Cl)c1)c1ccc([N+](=O)[O-])cc1`: the IC50 is 42.8 µM. To `CCCCCCOC(=O)C[N+](C)(C)CCOC1CC2CCC1(C)C2(C)C` (stereo not given) belongs 48 µM. To `CS(=O)(=O)c1ccc([C@@H](O)[C@@H](CO)NC(=O)C(Cl)Cl)cc1` belongs 19.7 µM; to `CC(C)N1CSC(=S)N(Cc2ccccc2)C1`, 59.7 µM. With `c1ccc(CN2CCN(c3ncnc4c3[nH]c3ccccc34)CC2)cc1`, the IC50 was 103 µM. To `CCN1CCN(Cc2ccc(NC(=O)c3cc(NC(=O)c4cc(-c5ccc(OC)cc5)n[nH]4)cc(OC)c3)cc2C(F)(F)F)CC1` belongs 102 µM. To `CCCCCCCCCCC[N+](C)(C)CC/C=C1/c2ccccc2Sc2ccc(Cl)cc21` belongs 31.4 µM; to `CSc1cccc(NC(=O)/C=C/c2ccccc2)c1`, 84.9 µM; to `O=C(O)c1ccc(N2C(=O)CSC2=S)cc1`, 144 µM. Then `O=C(NC1CCCCC1)c1ccc([N+](=O)[O-])o1`, with 39.5 µM; and `CC(Nc1nc(N2CCCC2)nc2ccccc12)c1ccccc1` (stereo not given), with 149 µM. As to `Oc1ccc(C[C@@H]2CNCCN2CCCCC2CCCCC2)cc1`, the IC50 was 74.3 µM. In the case of `CCCCCOc1ccc(C)cc1CN(CCCl)CCCl`, the IC50 was 138 µM. Regarding `C#CCOCCOCCOCCNc1nc(N2CCN(C(=O)[C@H](Cc3cc4ccccc4[nH]3)n3cc([C@@H](N)CC(C)C)nn3)CC2)nc(N2CCN(C(=O)[C@H](Cc3cc4ccccc4[nH]3)n3cc([C@@H](N)CC(C)C)nn3)CC2)n1`, the IC50 was 67.5 µM.

For `O=C(Cn1nc(CNc2ccc(Cl)cc2)[n+]2c1CCCCC2)c1ccc(Br)cc1`, the IC50 is 77.5 µM. Turning to `CO/N=C(/C(=O)N[C@@H]1C(=O)N2C(C(=O)O)=CCS[C@H]12)c1cnc(N)s1`, the IC50 was 59.8 µM. To `C1=C(CCNc2ncnc3c2[nH]c2ccccc23)CCCC1` belongs 115 µM; to `COc1cc([N+](=O)[O-])cc(/C=N/NC(=O)CSc2ccccn2)c1O`, 77.7 µM; to `O=C1NCCCC1C(=O)N/N=C/c1cc([N+](=O)[O-])ccc1O` (stereo not given), 114 µM. Then `COc1cc(C)c(Cc2cnc(N)nc2N)cc1OC`, with 2.4 µM; and `Cc1nc(N)nc(N)c1CCCc1ccc(Cl)c(Cl)c1`, with 43.1 µM.
